What is called pEC50 is −log10 of the EC50, conventionally taken in molar units.

pEC50: −log10 of the molar value.

For one assay, the target named is human FPR1 (Homo sapiens (Human), UniProt P21462). Nature of the assay: FPR1 cyclic adenosine monophosphate (cAMP) assay. The class given is cell-based. The following applies: CHO cells overexpressing human FPR1; forskolin 10 µM; inhibition of cAMP production; read-out: hFPR1 cAMP EC50. The gist of the method: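 CHO cells overexpressing human FPR1 (4,000 cells/well) stimulated with 10 µM forskolin plus 200 µM IBMX in the presence of compound (0.020 nM–100 µM, 1% DMSO), 30 min at room temperature. Intracellular cAMP measured by HTRF. Inhibition of cAMP production fitted to a 4-parameter logistic equation.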
Background: cAMP levels reflect the balance of adenylyl cyclase and phosphodiesterase activity.

In another assay the target is human FPR2 (Homo sapiens (Human), UniProt P25090). Briefly: FPR2 cyclic adenosine monophosphate (cAMP) assay. The class given is cell-based. The following applies: CHO cells overexpressing human FPR2; forskolin 5 µM; inhibition of cAMP production; read-out: hFPR2 cAMP2 EC50. The gist of the method:
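CHO cells overexpressing human FPR2 (2,000/well) incubated 30 min at room temperature with compound (0.020 nM–100 µM, 1% DMSO), 5 µM forskolin and 200 µM IBMX.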

human FPR2, sequence (P25090 whole entry): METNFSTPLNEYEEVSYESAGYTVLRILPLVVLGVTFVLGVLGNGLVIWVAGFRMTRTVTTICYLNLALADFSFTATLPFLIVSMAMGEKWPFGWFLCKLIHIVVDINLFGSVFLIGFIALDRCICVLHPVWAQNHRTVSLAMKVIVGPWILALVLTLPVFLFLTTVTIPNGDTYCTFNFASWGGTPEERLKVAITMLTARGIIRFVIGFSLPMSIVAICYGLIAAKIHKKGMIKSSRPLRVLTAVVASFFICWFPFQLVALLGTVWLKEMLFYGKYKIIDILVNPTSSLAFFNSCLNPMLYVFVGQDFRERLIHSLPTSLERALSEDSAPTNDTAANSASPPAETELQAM
human FPR1, sequence (P21462 whole entry): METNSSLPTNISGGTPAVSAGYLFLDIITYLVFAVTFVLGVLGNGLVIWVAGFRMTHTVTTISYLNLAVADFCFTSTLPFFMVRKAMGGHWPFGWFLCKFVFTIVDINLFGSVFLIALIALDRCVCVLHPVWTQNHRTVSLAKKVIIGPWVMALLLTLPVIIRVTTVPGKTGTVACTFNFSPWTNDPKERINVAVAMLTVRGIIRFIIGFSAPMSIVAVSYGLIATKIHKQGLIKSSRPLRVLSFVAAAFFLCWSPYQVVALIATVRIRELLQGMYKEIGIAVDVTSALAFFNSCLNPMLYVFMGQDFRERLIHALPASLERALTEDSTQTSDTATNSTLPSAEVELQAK

Take `COCC(C(=O)N1C[C@@H]2C[C@H]1CO2)n1cccc(N2C[C@@H](c3c(F)cc(OC)cc3F)[C@H](NC(=O)c3ccc(OC(F)(F)F)cc3)C2=O)c1=O` (stereo partly drawn) [Example 363]: the pEC50 on human FPR1 was 8.52; on human FPR2, 9.10.
In the same order, the values of `COc1ccc([C@@H]2CN(c3cccn(CC(OC)C(F)(F)F)c3=O)C(=O)[C@H]2NC(=O)c2ccc(OC(F)(F)F)cc2)c(F)c1` (stereo partly drawn) [Example 364] are 9.00 and 8.64.
For `COCCn1ccc(C)c(N2C[C@@H](c3ccc(OC)cc3)[C@H](NC(=O)c3ccc(Cl)cc3)C2=O)c1=O` [Example 365] the same measures were 9.00 and 8.59.
In the same order, the values of `COc1ccc([C@@H]2CN(c3c(C)ccn(CC(F)F)c3=O)C(=O)[C@H]2NC(=O)c2ccc(Cl)cc2)cc1` [Example 366] are 8.52 and 8.52.
Consider `COc1ccc([C@@H]2CN(c3c(C)ccn(CCO)c3=O)C(=O)[C@H]2NC(=O)c2ccc(OC(F)F)cc2)c(F)c1` [Example 367], for which the pEC50 was 8.52 at human FPR1 and 8.92 on human FPR2.
In the same order, the values of `O=C(N[C@@H]1C(=O)N(c2cccn(CC(O)C(F)(F)F)c2=O)C[C@H]1c1ccc(Cl)cc1)c1ccc(OC(F)F)cc1` (stereo partly drawn) [Example 368] are 7.07 and 8.77.
Take `CCn1cncc(N2C[C@@H](c3c(F)cc(OC)cc3F)[C@H](NC(=O)c3ccc(OC(F)F)cc3)C2=O)c1=O` [Example 369]: the results for the pEC50 on human FPR1 and on human FPR2 were 5.96 and 8.43, respectively.
For `COCCn1cncc(N2C[C@@H](c3c(F)cc(OC)cc3F)[C@H](NC(=O)c3ccc(OC(F)F)cc3)C2=O)c1=O` [Example 370] the same measures were 5.85 and 8.43.
As for `COc1ccc([C@@H]2CN(c3cccn(CC(O)C(F)(F)F)c3=O)C(=O)[C@H]2NC(=O)c2ccc(OC(F)F)cc2)cc1` (stereo partly drawn) [Example 371], the pEC50 is 8.10 on human FPR1 and 8.72 on human FPR2.
Take `CCN1CCC(N2C[C@@H](c3c(F)cc(OC)cc3F)[C@H](NC(=O)c3ccc(OC(F)(F)F)cc3)C2=O)C1=O` (stereo partly drawn) [Example 372]: the negative-log EC50 (pEC50) on human FPR1 was 7.77; at human FPR2, 8.55.
For `CCn1ccc(F)c(N2C[C@@H](c3c(F)cc(OC)cc3F)[C@H](NC(=O)c3ccc(OC(F)F)cc3)C2=O)c1=O` [Example 373] the same measures were 6.63 and 7.90.
In the same order, the values of `COc1ccc([C@@H]2CN(c3c(C)ccn(CCO)c3=O)C(=O)[C@H]2NC(=O)c2ccc(OC(F)(F)F)cc2)c(F)c1` [Example 375] are 8.52 and 8.80.
Take `COc1ccc([C@@H]2CN(c3c(C)ccn(CC(F)F)c3=O)C(=O)[C@H]2NC(=O)c2ccc(OC(F)F)cc2)c(F)c1` [Example 376]: the pEC50 at human FPR1 is 8.40; at human FPR2, 9.40.
In the same order, the values of `COc1ccc([C@@H]2CN(c3c(C)ccn(CC(F)F)c3=O)C(=O)[C@H]2NC(=O)c2ccc(Cl)cc2)c(F)c1` [Example 377] are 8.30 and 8.80.
For the molecule `CCn1cncc(N2C[C@@H](c3c(F)cc(OC)cc3F)[C@H](NC(=O)c3ccc(Cl)cc3)C2=O)c1=O` [Example 378], the results for the pEC50 at human FPR1 and on human FPR2 were 5.42 and 8.34, respectively.
In the case of `COc1cc(F)c([C@@H]2CN(c3c(C)ccn(CC(=O)N4CCOCC4)c3=O)C(=O)[C@H]2NC(=O)c2ccc(Cl)cc2)c(F)c1` [Example 379], the pEC50 at human FPR1 is 6.49; at human FPR2, 8.59.
Take `COc1ccc([C@@H]2CN(c3cccn(CC(OC)C(F)(F)F)c3=O)C(=O)[C@H]2NC(=O)c2ccc(Cl)cc2)c(F)c1` (stereo partly drawn) [Example 380]: the values for the pEC50 at human FPR1 and on human FPR2 were 8.52 and 8.74, respectively.
In the same order, the values of `COc1cc(F)c([C@@H]2CN(c3c(C)ccn(C(F)F)c3=O)C(=O)[C@H]2NC(=O)c2ccc(OC(F)F)cc2)c(F)c1` [Example 381] are 8.00 and 8.40.
For `COc1ccc([C@@H]2CN(c3c(C)ccn(C(F)F)c3=O)C(=O)[C@H]2NC(=O)c2ccc(OC(F)(F)F)cc2)cc1` [Example 383] the same measures were 8.70 and 8.26.
With `COc1ccc([C@@H]2CN(c3c(C)ccn(C(F)F)c3=O)C(=O)[C@H]2NC(=O)c2ccc(OC(F)F)cc2)cc1` [Example 384], the pEC50 on human FPR1 is 9.00; on human FPR2, 8.72.
In the same order, the values of `COc1ccc([C@@H]2CN(c3c(C)ccn(CC4CC4)c3=O)C(=O)[C@H]2NC(=O)c2ccc(Cl)cc2)cc1` [Example 385] are 9.00 and 8.15.
As to `COc1ccc([C@@H]2CN(c3c(C)ccn(CCC(F)(F)F)c3=O)C(=O)[C@H]2NC(=O)c2ccc(Cl)cc2)cc1` [Example 386], the pEC50 is 9.00 on human FPR1 and 8.62 on human FPR2.
For `COc1ccc([C@@H]2CN(c3c(C)ccn(CCC(F)(F)F)c3=O)C(=O)[C@H]2NC(=O)c2ccc(OC(F)F)cc2)cc1` [Example 387] the same measures were 9.00 and 8.66.
As for `COCC(CO)n1ccc(C)c(N2C[C@@H](c3ccc(OC)cc3)[C@H](NC(=O)c3ccc(OC(F)F)cc3)C2=O)c1=O` (stereo partly drawn) [Example 389], the pEC50 on human FPR1 and at human FPR2 was above 8.30 in each case.
On to `CCN1CCC(N2C[C@@H](c3c(F)cc(OC)cc3F)[C@H](NC(=O)c3ccc(OC(F)F)cc3)C2=O)C1=O` (stereo partly drawn) [Example 390], for which the results for the negative-log EC50 (pEC50) on human FPR1 and on human FPR2 were 7.12 and 8.32, respectively.
With `COc1ccc([C@@H]2CN(c3cccn(CC(C)O)c3=O)C(=O)[C@H]2NC(=O)c2ccc(Cl)cc2)cc1` (stereo partly drawn) [Example 391], the pEC50 on human FPR1 is 7.44; on human FPR2 it was 8.26.
As to `COc1ccc([C@@H]2CN(c3cccn(CC(OC)C(F)(F)F)c3=O)C(=O)[C@H]2NC(=O)c2ccc(Cl)cc2)cc1` (stereo partly drawn) [Example 393], the pEC50 on human FPR1 is 8.70; at human FPR2, 8.62.
For `COc1ccc([C@@H]2CN(c3c(C)ccn(CCO)c3=O)C(=O)[C@H]2NC(=O)c2ccc(Cl)cc2)c(F)c1` [Example 394] the same measures were 7.96 and 8.72.
`COc1ccc([C@@H]2CN(c3cccn(CC(C)OC)c3=O)C(=O)[C@H]2NC(=O)c2ccc(OC(F)(F)F)cc2)c(F)c1` (stereo partly drawn) [Example 395]: the pEC50 at human FPR1 is 9.00; at human FPR2, 8.62.
In the case of `COc1cc(F)c([C@@H]2CN(c3cccnc3OCCO)C(=O)[C@H]2NC(=O)c2ccc(OC(F)(F)F)cc2)c(F)c1` [Example 396], the pEC50 on human FPR1 is 7.41; on human FPR2, 8.02.
For `COCC(CO)n1cccc(N2C[C@@H](c3ccc(OC)cc3)[C@H](NC(=O)c3ccc(Cl)cc3)C2=O)c1=O` (stereo partly drawn) [Example 397] the same measures were 7.82 and 8.57.
For `COCCn1nccc(N2C[C@@H](c3c(F)cc(OC)cc3F)[C@H](NC(=O)c3ccc(OC(F)F)cc3)C2=O)c1=O` [Example 398] the same measures were 7.96 and 8.14.
On to `COc1ccc([C@@H]2CN(c3c(C)ccn(CCC(F)(F)F)c3=O)C(=O)[C@H]2NC(=O)c2ccc(Cl)cc2)c(F)c1` [Example 401], for which the pEC50 on human FPR1 is 8.15; on human FPR2, 8.43.
For the molecule `COc1ccc([C@@H]2CN(c3c(C)ccn(CCC(F)(F)F)c3=O)C(=O)[C@H]2NC(=O)c2ccc(OC(F)F)cc2)c(F)c1` [Example 402], the pEC50 was 8.52 on human FPR1 and 8.55 on human FPR2.
For `COc1ccc([C@@H]2CN(c3cccn(CC(C)OC)c3=O)C(=O)[C@H]2NC(=O)c2ccc(OC(F)(F)F)cc2)cc1` (stereo partly drawn) [Example 405] the same measures were 8.70 and 8.33.
In the same order, the values of `COCC(CO)n1cccc(N2C[C@@H](c3ccc(Cl)cc3)[C@H](NC(=O)c3ccc(Cl)cc3)C2=O)c1=O` (stereo partly drawn) [Example 406] are 8.05 and 8.54.
Take `COc1cc(F)c([C@H]2[C@H](NC(=O)c3ccc(OC(F)F)cc3)C(=O)N(c3cccn(CCO)c3=O)[C@@H]2C)c(F)c1` [Example 407]: the negative logarithm of the EC50 (pEC50) at human FPR1 was 6.19; on human FPR2, 8.11.
For `COCCOc1ncccc1N1C[C@@H](c2c(F)cc(OC)cc2F)[C@H](NC(=O)c2ccc(OC(F)(F)F)cc2)C1=O` [Example 408] the same measures were 8.05 and 8.46.
In the same order, the values of `CC(O)Cn1cccc(N2C[C@@H](c3ccc(Cl)cc3)[C@H](NC(=O)c3ccc(OC(F)F)cc3)C2=O)c1=O` (stereo partly drawn) [Example 409] are 7.44 and 8.20.
On to `COCCNc1ccnc(N2C[C@@H](c3c(F)cc(OC)cc3F)[C@H](NC(=O)c3ccc(Cl)cc3)C2=O)c1C(F)(F)F` [Example 410], for which the negative-log EC50 (pEC50) was 5.48 at human FPR1 and 7.93 at human FPR2.
As to `COCC(CO)n1cccc(N2C[C@@H](c3ccc(OC)cc3)[C@H](NC(=O)c3ccc(Cl)cc3)C2=O)c1=O` (stereo partly drawn) [Example 411], the pEC50 is 6.92 on human FPR1 and 8.59 on human FPR2.
For the molecule `COCCOc1ncccc1N1C[C@@H](c2c(F)cc(OC)cc2F)[C@H](NC(=O)c2ccc(OC(F)F)cc2)C1=O` [Example 412], the pEC50 is 7.03 at human FPR1 and 8.12 at human FPR2.
`COCCOc1ncccc1N1C[C@@H](c2c(F)cc(OC)cc2F)[C@H](NC(=O)c2ccc(Cl)cc2)C1=O` [Example 413]: the negative logarithm of the EC50 (pEC50) on human FPR1 was 6.92; at human FPR2 it was 9.22.
Regarding `COCC(CO)n1cccc(N2C[C@@H](c3ccc(Cl)cc3)[C@H](NC(=O)c3ccc(Cl)cc3)C2=O)c1=O` (stereo partly drawn) [Example 414], the pEC50 on human FPR1 is 7.72; on human FPR2, 8.33.
In the same order, the values of `Cc1ccn(CC(F)F)c(=O)c1N1C[C@@H](c2ccc(Cl)cc2)[C@H](NC(=O)c2ccc(OC(F)F)cc2)C1=O` [Example 415] are 8.52 and 8.17.
